Results on five molecules are retold here after patent US20210379040A1, “COMBINATION TREATMENT OF LIVER DISORDERS” (Terns Pharmaceuticals, Inc., priority 2020, published 2021).

Structures can show the parent of a compound that is named as a salt. Where two headings read alike, the source gives them in different places.

The conditions of data set [1]: cited from earlier work.
Data set [2] has as its system FXR-regulated gene expression in human HuH7 hepatoma cells. Put plainly: cells. The settings on record: Huh-7, 11 h.
Procedure: EC50 values for FXR-regulated gene expression were determined using a cell-based RNA assay.
The conditions of data set [3]: male, human, in vivo.
Procedure: (§1) SSAO inhibition was determined by measuring relative reductions in plasma H2O2 generation after addition of an exogenous substrate (benzylamine). […] Safety was assessed for 7 (±3) days after dosing.
(§2) Plasma PK parameters were determined by non-compartmental analysis. […] Percent change in total amine oxidase activity was determined relative to the corresponding pre-dose (baseline) samples.
The nature of data set [4]: Single-ascending dose clinical trial: plasma PK and safety.
Procedure: as §1, §2

Take `CC[C@H]1[C@@H](O)[C@@H]2[C@H](CC[C@]3(C)[C@@H]([C@H](C)CCNC(=O)NS(=O)(=O)c4ccc(C(C)(C)C)cc4)CC[C@@H]23)[C@@]2(C)CC[C@@H](O)C[C@@H]12` [EDP-305]: the “pruritus in longer term studies” value in data set [1] was “known to result in pruritus”.
As for `CC[C@H]1[C@@H](O)[C@@H]2[C@H](CC[C@]3(C)[C@@H]([C@H](C)CCC(=O)O)CC[C@@H]23)[C@@]2(C)CC[C@@H](O)C[C@@H]12` [OCA, obeticholic acid, reference compound], in data set [1], the “pruritus in longer term studies” value is reported as “known to result in pruritus”. For the same molecule, the EC50 in data set [2] (read-out: EC50, BSEP Gene induction/HuH7) amounted to 200 nM; in data set [2] (read-out: EC50, FGF-19 Gene Induction/HuH7) it was 130 nM; in data set [2] (read-out: EC50, SHP Gene induction/HuH7), 200 nM.
For the molecule `O=C(O)c1ccnc(N2CC(O)(c3ccc(OCc4c(-c5c(Cl)cccc5Cl)noc4C4CC4)cc3Cl)C2)c1` [cilofexor], the “pruritus in longer term studies” value in data set [1] is listed as “known to result in pruritus”.
As to `COC1CCN(c2ncc(OC/C(=C/F)CN)cn2)CC1` [tosylate salt of Compound 2], the “TEAE frequency: oral herpes” value in data set [3] is reported as 1 (3.1). Also, in data set [4] (1 mg or placebo (n = 8)), the “Subject incidence of TEAEs considered possibly treatment-related” value stood at 0, the “Subject incidence of any TEAE” value is 0, the “TEAE frequency: constipation” value came out at 0 and the “TEAE frequency: contact dermatitis” value stood at 0. In addition, in data set [4] (1 mg or placebo (n = 8)), the “TEAE frequency: dysgeusia” value was 0, the “TEAE frequency: headache” value came out at 0, the “TEAE frequency: sore throat” value came out at 0 and the “TEAE frequency: upper respiratory tract infection” value worked out at 0. Further, in data set [4] (3 mg or placebo (n = 8)), the “Subject incidence of TEAEs considered possibly treatment-related” value is 0, the “Subject incidence of any TEAE” value is reported as 0, the “TEAE frequency: constipation” value is listed as 0 and the “TEAE frequency: contact dermatitis” value stood at 0. Moreover, in data set [4] (3 mg or placebo (n = 8)), the “TEAE frequency: dysgeusia” value is 0, the “TEAE frequency: headache” value was 0, the “TEAE frequency: sore throat” value came to 0 and the “TEAE frequency: upper respiratory tract infection” value is given as 0. Moreover, in data set [4] (6 mg (n = 8)), the “Subject incidence of TEAEs considered possibly treatment-related” value is listed as 0, the “Subject incidence of any TEAE” value is recorded as 2 (25), the “TEAE frequency: constipation” value was 0 and the “TEAE frequency: contact dermatitis” value is given as 2 (25). For the same molecule, in data set [4] (6 mg (n = 8)), the “TEAE frequency: dysgeusia” value was 0, the “TEAE frequency: headache” value is recorded as 0, the “TEAE frequency: sore throat” value is given as 1 (12.5) and the “TEAE frequency: upper respiratory tract infection” value is reported as 0. For the same molecule, in data set [4] (10 mg or placebo (n = 8)), the “Subject incidence of TEAEs considered possibly treatment-related” value was 1 (12.5), the “Subject incidence of any TEAE” value is listed as 3 (37.5), the “TEAE frequency: constipation” value is given as 1 (12.5) and the “TEAE frequency: contact dermatitis” value turned out to be 0. Further, in data set [4] (10 mg or placebo (n = 8)), the “TEAE frequency: dysgeusia” value is recorded as 1 (12.5), the “TEAE frequency: headache” value is recorded as 1 (12.5), the “TEAE frequency: sore throat” value is recorded as 0 and the “TEAE frequency: upper respiratory tract infection” value is 1 (12.5). In data set [4] (All (n = 32)), the “Subject incidence of TEAEs considered possibly treatment-related” value is reported as 1 (3.1), the “Subject incidence of any TEAE” value is listed as 5 (15.6), the “TEAE frequency: constipation” value is given as 1 (3.1) and the “TEAE frequency: contact dermatitis” value is reported as 2 (6.3). Besides, in data set [4] (All (n = 32)), the “TEAE frequency: dysgeusia” value is given as 1 (3.1), the “TEAE frequency: headache” value was 1 (3.1), the “TEAE frequency: sore throat” value is 1 (3.1) and the “TEAE frequency: upper respiratory tract infection” value is reported as 1 (3.1). The clearance from plasma result in data set [4] (single doses, healthy humans) is “rapidly cleared from plasma”.
For `O=C(O)c1cc(F)c2nc(N3[C@@H]4CC[C@H]3C[C@@H](OCc3c(-c5ccccc5OC(F)(F)F)noc3C3CC3)C4)sc2c1` [tropifexor], in data set [1], the “pruritus in longer term studies” value is recorded as “known to result in pruritus”.
